Patent US20100273750A1, “SEROTONIN RECEPTOR ANTAGONISTS FOR TREATING ARTHRITIS” (IMPERIAL INNOVATIONS LIMITED, priority 2007, published 2010)
“Also recorded” adds a separate entry of the source. Structures can show the parent of a compound that is named as a salt.

Assays:
[1] = test system: TLR4 ligand LPS induced TNF; experiment: LPS induced TNF production in primary human macrophages (ELISA); type: cell-based; settings: 30 minutes preincubation
Protocol: (§1) Macrophages or RA synovial membrane cell cultures were stimulated with 10 ng/ml chloroform-extracted LPS, 10 ng/ml Pam3, 10 ng/ml Flagellin, 10 ng/ml Malp-2, 20 μg/ml poly IC, 2 μM CpG (human/mouse) or 1 μg/ml R-848 in complete media for 6 h. Supernatants from RA cultures were harvested after 24 hours. All reagents other than LPS were free from LPS contamination as assessed using the limulus amebocyte lysate (LAL) assay from Cambrex (USA).
(§2) Sandwich ELISAs were employed to measure TNF, (Pharmingen, UK). IP-10 (R&D, USA) and IL-1β (Bioscource. USA). Absorbance was read on a spectrophotometric ELISA plate reader (Labsystems Multiscan Biochromic) and analyzed using Ascent software V2.6 (Thermo Labsystems, Cambridge, United Kingdom). All results are expressed as the mean cytokine concentration±SD obtained from triplicate cultures per condition.
(§3) RA synovial membrane cells were isolated from patients undergoing joint replacement surgery as previously described (Foxwell et al., Proc. Natl. Acad. Sci. USA 95, 8211-8215, 1998). All patients gave written informed consent and the study was approved by the local ethics committee. Immediately after isolation, cells were used for mRNA analysis, stained by FACS or cultured at 1×10^5 cells/well in 96-well tissue culture plates (Falcon, UK) in RPMI 1640 containing 10% (v/v) FBS and 100 U/ml penicillin/streptomycin. Primary human synovial fibroblasts were cultured as described previously (Butler et al. Eur. Cytokine Netw. 5:441-8, 1994). Peripheral blood monocytes were isolated and cultured as previously described (Foxwell et al. Proc. Natl. Acad. Sci. USA 95, 8211-8215, 1998). Macrophages were derived from monocytes after differentiation for 4 days with 100 ng/ml M-CSF (PeproTech, UK). The mouse macrophage cell line RAW 264.7 was maintained in Dulbecco's modified Eagle's medium supplemented with 10% fetal bovine serum.
Primary human macrophages, murine RAW 264.7 cells and synovial fibroblasts were incubated with 30 μg/ml mianserine hydrochloride for 30 minutes and then stimulated for 6 hours with TLR ligands (R-848, Pam3, LPS, flagellin, malp-2, poly IC or CpG).

[2] = test system: TLR3 ligand poly IC induced IP-10; experiment: Poly IC induced IP-10 production in human macrophages (ELISA); type: cell-based
Protocol: as §1, §2, §3
Primary human macrophages were incubated with 5 μg/ml of GBR12909, 5 μg/ml of clotrimazole, 5 μg/ml of Propidium iodide (PI), 30 μg/ml mianserine hydrochloride and 30 μg/ml promazine hydrochloride for 30 minutes and then stimulated for 6 hours with the TLR4 ligand LPS (FIG. 7A), with R848 a TLR7/8 ligand (FIG. 7, Graph B), or with poly IC a TLR3 ligand (FIG. 7C). Supernatants were collected and measured for TNF or IP-10.

[3] = test system: RA synovial membrane cultures; experiment: Spontaneous cytokine release from RA synovial membrane cultures (ELISA); type: cell-based, human
[4] = test system: TLR7/8 ligand R-848 induced TNF; experiment: R-848 induced TNF production in primary human macrophages (ELISA); settings: 1 μg/ml R-848 for 6 hours
[5] = test system: rheumatoid synovial membrane cultures; experiment: TNF production in rheumatoid synovial membrane cultures stimulated with TLR ligands (ELISA); type: cell-based, human
Protocol: as §1, §2, §3
To check if these TLRs were functional in synovial membrane cultures, cells were stimulated with the appropriate TLR ligands at the time of seeding the cells (FIG. 5, Graph C). […]

[6] = test system: RA synovial membrane cultures; experiment: Spontaneous cytokine release from RA synovial membrane cultures (ELISA); type: cell-based, human; settings: 10 μg/ml, 20 μg/ml and 30 μg/ml
Protocol: as §1, with “hours.” for “hours. All reagents other than LPS were free from LPS contamination as assessed using the limulus amebocyte lysate (LAL) assay from Cambrex (USA).”
as §2, §3
Rheumatoid arthritis synovial membrane cells were cultured for 24 hours in the presence of media alone or media containing 30 μg/ml mianserine hydrochloride. Supernatants were harvested and levels of cytokines (A) TNF (n=16) were measured by ELISA. […] A students paired t-test was used to analyse the data.

[7] = 5 μg/ml, 30 minutes preincubation
[8] = 30 μg/ml, 10 ng/ml LPS for 6 hours
[9] = dose dependant, best inhibition at 100 μM, 24 hours, n=4

Compound: CC[N+](C)(CC)CCC[n+]1c(-c2ccccc2)c2cc(N)ccc2c2ccc(N)cc21.[I-].[I-] [Propidium iodide]
- inhibition of LPS induced TNF production ([1]; 5 μg/ml, LPS for 6 hours): None of the drugs tested were able to inhibit
- inhibition of Poly IC induced IP-10 production ([2]; 5 μg/ml, poly IC for 6 hours): able to inhibit
- inhibition of spontaneous TNF production ([3]; 5 μg/ml, 24 hours): did not lead to a significant decrease
- inhibition of R-848 induced TNF production [4, 7]: only the serotonin receptor antagonists (mianserine hydrochloride and promazine hydrochloride) were able to suppress

Compound: CCOCc1nc2c(N)nc3ccccc3c2n1CC(C)(C)O [R-848, resiquimod]
- TNF production increased on stimulation ([5]; 1 μg/ml, TLR7/8 ligand, P<0.0001, n=11): 515%±76

Compound: Clc1ccccc1C(c1ccccc1)(c1ccccc1)n1ccnc1 [clotrimazole, Clotrimazole]
- inhibition of LPS induced TNF production ([1]; 5 μg/ml, LPS for 6 hours): None of the drugs tested were able to inhibit
- inhibition of Poly IC induced IP-10 production ([2]; 5 μg/ml, poly IC for 6 hours): able to inhibit
- inhibition of spontaneous TNF production ([3]; 5 μg/ml, 24 hours): did not lead to a significant decrease
- inhibition of R-848 induced TNF production [4, 7]: only the serotonin receptor antagonists (mianserine hydrochloride and promazine hydrochloride) were able to suppress

Compound: CC(C)Cn1cnc2c(N)nc3ccccc3c21 [imiquimod]
- stimulation of cytokine release over spontaneous levels ([5]; 1 μg/ml, TLR7 ligand): unable to stimulate further release of cytokines

Compound: CN1C[C@H](CNC(=O)OCc2ccccc2)C[C@@H]2c3cccc4c3c(cn4C)C[C@H]21 [metergoline]
- inhibition of spontaneous TNF production ([3]; 10 μg/ml, 24 hours): able to inhibit
- inhibition of R-848 induced TNF production ([4]; 10 μg/ml, 30 minutes preincubation): able to inhibit

Compound: CSc1ccc2c(c1)C(N1CCN(C)CC1)Cc1ccccc1S2 (stereo not shown) [methiothepin]
- inhibition of spontaneous TNF production ([3]; 5 μg/ml, 24 hours): able to inhibit
- inhibition of R-848 induced TNF production [4, 7]: able to inhibit

Compound: Cc1nccn1CC1CCc2c(c3ccccc3n2C)C1=O (stereo not shown) [ondansetron]
- inhibition of LPS induced TNF production [1, 8]: not
- inhibition of spontaneous TNF production ([3]; 20 μg/ml, 24 hours): able to inhibit; also recorded: significant inhibition
- inhibition of R-848 induced TNF production ([4]; 30 μg/ml, 30 minutes preincubation): significantly inhibits
- inhibition of R-848 induced TNF production ([4]; 30 μg/ml, 30 minutes preincubation, listed as Ondansetron): able to inhibit
- inhibition of R-848 induced TNF production, dose dependence ([4]; 5, 10 or 20 μg/ml, 30 minutes preincubation): dose dependant inhibition

Compound: CN(C)CCCN1c2ccccc2Sc2ccccc21 [promazine hydrochloride]
- inhibition of TNF, dose dependence [6]: dose dependently inhibited
- inhibition of LPS induced TNF production [1, 8]: None of the drugs tested were able to inhibit
- inhibition of Poly IC induced IP-10 production ([2]; 30 μg/ml, 20 μg/ml poly IC for 6 hours, hydrochloride): inhibits TLR3 induced signalling; also recorded: able to inhibit
- inhibition of R-848 induced TNF production ([4]; 30 μg/ml, 30 minutes preincubation, hydrochloride): able to suppress
- inhibition of R-848 induced TNF production ([4]; 30 μg/ml, 30 minutes preincubation, listed as Promazine hydrochloride, hydrochloride): decreased TNF production

Compound: Cc1nc2sccn2c(=O)c1CCN1CCC(=C(c2ccc(F)cc2)c2ccc(F)cc2)CC1 [ritanserin]
- inhibition of spontaneous TNF production ([3]; 5 μg/ml, 24 hours): able to inhibit
- inhibition of R-848 induced TNF production [4, 7]: able to inhibit

Compound: NCCc1c[nH]c2ccc(O)cc12 [serotonin (5-HT), 5-hydroxytryptamine]
- inhibition of R-848 induced TNF production (TLR8 signaling) ([4]; 10 or 100 μM, 30 minute preincubation): not inhibited

Compound: Chloroquine diphosphate salt
- inhibition of spontaneous IL-1 release [3, 9]: inhibited
- inhibition of spontaneous TNF release [3, 9]: inhibited

Compound: Poly IC
- TNF production increased on stimulation ([5]; 20 μg/ml, TLR3 ligand, P=0.0002, n=12): 334%±60

Compound: ketanserine tartrate
- inhibition of TNF, dose dependence ([3]; 10 μM, 100 μM): dose dependently inhibited
